Source: US20110173718A1, “HERBICIDE TOLERANT PLANTS” (SYNGENTA CROP PROTECTION, INC., priority 2008, published 2011)
Where “and” joins values, the source holds several entries; their conditions need not be identical. Equal values may be shown once. Marks after values point to notes of the source that are not given here.

Columns and labels:
[1] = biological target: T1, Chlamydomonas HST (Chlamydomonas reinhardtii, UniProt A1JHN0); assay: HST assay (TLC, MFBQ formed), recombinant Chlamydomonas HST in E. coli membranes; format: biochemical; conditions: TLC, estimated amount of MFBQ formed, relative to controls
T1 construct: GST (N); made in house; host or cells: E. coli (BL21A1 / BL21DE3), membrane fraction
T1 sequence (A1JHN0 51-370): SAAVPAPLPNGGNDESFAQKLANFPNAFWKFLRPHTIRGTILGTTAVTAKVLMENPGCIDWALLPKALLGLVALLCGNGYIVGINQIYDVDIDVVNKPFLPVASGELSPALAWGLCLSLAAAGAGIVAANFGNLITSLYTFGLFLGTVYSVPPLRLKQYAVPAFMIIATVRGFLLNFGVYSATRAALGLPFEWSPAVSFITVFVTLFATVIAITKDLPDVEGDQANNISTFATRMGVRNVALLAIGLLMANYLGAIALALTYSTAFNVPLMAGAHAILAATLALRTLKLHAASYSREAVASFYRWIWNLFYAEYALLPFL
Description: Alternatively, Arabidopsis and Chlamydomonas mature HST coding sequences are cloned as GST N-terminal fusion enzymes and expressed in E. coli.
E. coli. BL21A1 cells expressing mature Arabidopsis or Chlamydonionas HST as a GST N-terminal fusion proteins are grown, harvested, broken and membrane fractions expressing HST produced.
For example, 1 ng of recombinant DNA is used to transform BL21DE3 cells to obtain a plateful of individual colonies. One of these colonies is picked and used to inoculate an overnight culture of 100 ml of Luria Broth (LB) supplemented with 50 ug/ml of kanamycin at final concentration, grown at 37° C. with shaking at 220 rpm. Next morning, 10 mls of the overnight culture is used to inoculate 11 of fresh sterile LB supplemented with 50 ug/ml of kanamycin at final concentration, grown at 37° C. with shaking at 220 rpm until the OD reached 0.6 at 600 nm, induced with the addition of 0.1 mM IPTG and left to induce at 15° C. overnight. The cells are harvested by centrifugation at 4600 rpm for 10 min at 4° C. and the pellet stored at −80° C. […] E. coli cell pellet is then resuspended in 25 ml of 50 mM Tris, pH 7.5 supplemented with Roche EDTA-free protease inhibitor tablet (one tablet in 200 mls of buffer). 10 ml of cells are lysed by sonication on ice. The resultant lysed cells are centrifuged at 3000 g for 10 min to pellet the cell nuclei/debris etc. 10 mls of supernatant is aspirated and centrifuged at 150,000 g for 60 min at 4° C. The pellet containing the membranes is resuspended in 2 ml of the above buffer. These samples are stored as 100 ul aliquots at −80° C., after being diluted with addition of glycerol to 50% v/v.
(§1) Prenyltransferase (HST) activities are measured by determining the prenylation rates of [U—^14C]homogentisate using farnesyl diphosphate (FDP) as prenyl donor. ^14C homogentisate is prepared from ^14C tyrosine using L amino acid oxidase and HPPD. For inhibitor testing, compounds are dissolved in dimethylsulfoxide (DMSO). DMSO added at up to 2% v/v has no effect on assays. Control assays contain DMSO at the same concentration as in inhibitor containing assays.
The recombinant Chlamydomonas HST expressed in E. coli membranes is assayed in standard reaction mixtures with 200 μM FDP and 100 μM ^14C-homogentisate (40 dpm/pmol) in 50 mM Tricine-NaOH pH 8.5, 20 mM MgCl2. Assays are started with the addition of enzyme and run for ˜20 min at 28° C.
Recombinant Arabidopsis and Rice HSTs are expressed in insect cells. Assays are run as for Chlamydomonas HST except that assay temperature is 27° C. Assays are stopped with 300 ul of solvent mix (1:2, Chloroform:Methanol) and 100 ul of 0.5% NaCl, agitated/mixed and spun at 13,000 rpm in a benchtop eppendorf centrifuge for 5 minutes. 80 ul of the lower phase extract is loaded onto a TLC plate (silica Gel 60, 20 cm×20 cm) FLA3000 system and run for 35 minutes in dichloromethane. The radioactivity is quantified using a Fuji Phosphoimager and band intensity integrated as quantitative measure of product amount. The bands corresponding to oxidised and reduced 2-methyl-6-farnesyl-1,4-benzoquinol (MFBQ) are identified and the total of the two (oxidised and reduced) band intensities is calculated in order to estimate the total amount of MFBQ product formation. Specific activities of 8 pmol MFBQ min^−1 mg^−1 protein (23 pmol) and 7 pmol MFBQ min^−1 mg^−1 protein (14 pmol) are, for example, estimated for the GST-fusion truncated Arabidopsis HST gene (SEQ ID # 3) expressed in membranes from insect cells 4 days and 5 days after transfection respectively. Similar results are noted from past literature on E. coli expressed Arabidopsis HST. Activity from the insect cell expressed GST-fusion truncated rice HST (SEQ ID# 4) is similar. Expression of the non-truncated HST coding sequences as GST fusions also gives HST activity. […]

[2] = biological target: T2, Arabidopsis HST (Arabidopsis thaliana, UniProt Q1ACB3); assay: HST total extraction (non TLC) assay, recombinant Arabidopsis HST from insect cells; format: biochemical; conditions: 3 point dose curves only conducted at 50 μM HPP
T2 construct: GST (factor Xa cleavage site) (N); made in house; host or cells: Sf9 insect cells (baculovirus, pAcG3X), membrane fraction
T2 sequence (Q1ACB3 70-386): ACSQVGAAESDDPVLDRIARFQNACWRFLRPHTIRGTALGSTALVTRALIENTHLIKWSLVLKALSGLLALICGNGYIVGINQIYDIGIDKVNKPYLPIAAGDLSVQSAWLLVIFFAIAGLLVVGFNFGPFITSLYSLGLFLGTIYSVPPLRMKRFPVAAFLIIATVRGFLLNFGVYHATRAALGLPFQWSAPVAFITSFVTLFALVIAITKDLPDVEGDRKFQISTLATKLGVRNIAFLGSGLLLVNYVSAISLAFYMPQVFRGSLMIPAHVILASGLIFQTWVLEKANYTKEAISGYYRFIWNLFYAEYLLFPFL

[3] = system: HST in spinach chloroplast extract; assay: HST assay (TLC, MFBQ formed), spinach chloroplast extract; format: biochemical; conditions: 25 ppm; TLC, estimated amount of MFBQ formed, relative to controls
Description: HST enzyme preparations for assay are also prepared directly from fresh plant material. For example HST enzyme preparations are from spinach. In the first step intact spinach chloroplasts are prepared from two lots of 500 g of fresh baby spinach leaves (e.g from the salad section of the local supermarket). Prepacked spinach is usually already washed, but if buying loose leaves these must be rinsed in water before proceeding. Stalks, large leaves and mid-ribs are removed. Each 500 g lot of leaves is added to 1.5 l of ‘Grinding medium’ in a 2 L plastic beaker. Grinding medium is cold (4° C.) 50 mM Tricine/NaOH buffer at pH 7.1 containing 330 mM glucose, 2 mM sodium isoascorbate, 5 mM MgCl2 and 0.1% bovine serum albumen The beaker, kept at 4° C., is placed under a Polytron 6000 blender, fitted with a 1.5″cutting probe and the mixture blended in short bursts of 5-8 sec up to 8-10K rpm until all the leaves are macerated. The homogenate is filtered into a 5 L beaker (embedded in an ice bucket) through four layers of muslin, and two layers of 50μ mesh nylon cloth. The filtrate is transferred to 250 ml buckets of a Beckman GS-6 centrifuge and spun at […] (3020 rpm) for 2 min at 4° C. The supernatant is drained away and discarded to leave a sediment of chloroplasts. Chloroplasts are resuspended in a few ml of cold resuspension medium by gentle swirling and gentle use of a quill brush soaked in resuspension medium. Resuspension medium is 50 mM Hepes/KOH pH 7.8 containing 330 mM sorbitol, 2 mM EDTA, 5 mM KH2PO4, 2 mM MgCl2 and 0.1% bovine serum albumen at 4° C. The chloroplasts are resuspended in 5-10 ml of resuspension buffer, recentrifuged down and resuspended again in order to wash them. The chloroplasts are then once again centrifuged down and then broken by resuspension in about 5 ml of 50 mM Tricine-NaOH pH 7.8 to a protein concentration of about 40 mg/ml. The solution is stored frozen at −80° C. in aliquots. This resuspension is defrosted and used directly in HST activity assays. Alternatively, chloroplasts are prepared resuspended in 50 mM Tris/HCl buffer at pH 7.8 containing 330 mM sorbitol (alternative resuspension buffer) and layered on top of a percol gradient (comprising the same buffer containing 45% percol), spun down, the intact chloroplast fraction taken and washed 2 or 3 times in the alternative resuspension buffer and then spun down again, resuspended in breaking buffer (without sorbitol), flash frozen and stored in aliquots at −80° C.
as §1
Assays using spinach chloroplast extracts (100 μl final volume) contain up to 2 mg of chloroplast protein, 50 mM Tricine-NaOH pH 8.5, 50 mM MgCl2, 200 μM farnesyl diphosphate (FDP) and 26 μM ^14C-homogentisate (167 dpm/pmol). Assays are run for about an hour at 28° C. […] Lipophilic reactions products are extracted and analyzed essentially as described in the literature.
Using the above assays percentage inhibition of the amount of MFBQ formed at a range of doses of inhibitors relative to the control amount obtained with no inhibitor present is reported (Table 1). The better inhibitors give greater percentage inhibition at lower doses.

[4] = system: wild-type (WT) Samsun tobacco; assay: Glasshouse spray test, wild-type tobacco; format: in vivo; conditions: for % damage at 7 DAT: WT Samsun, individual plants
Description: Rooted transgenic T0 plantlets are transferred from agar and potted into 50% peat, 50% John Innes soil no 3 or, for example, MetroMix® 380 soil (Sun Gro Horticulture, Bellevue, Wash.) with slow-release fertilizer in 3 inch round or 4 inch square pots and left regularly watered to establish for 8-12 d in the glass house. Glass house conditions are about 24-27° C. day; 18-21° C. night and approximately a 14 h (or longer in UK summer) photoperiod. Humidity is ˜65% and light levels up to 2000 μmol/m^2 at bench level. Once new tissue emerges and plants they have reached the 2-4 leaf stage some of the clones from each event are sprayed with test chemicals dissolved in water with 0.2-0.25% X-77 surfactant and sprayed from a boom on a suitable track sprayer moving at 2 mph in a DeVries spray chamber with the nozzle about 2 inches from the plant tops. Spray volume is suitably 25 gallons per acre or, for example, […].
Test chemicals are, for example, compound 2.3 at 500 g/ha. At the same time that transgenic plants are sprayed so too are w/t Samsun tobacco plants grown from seed as well as non-transgenic plants regenerated from tissue culture and non-transgenic tissue culture escapes. Damage is assessed versus unsprayed control plants of like size and development.
6 Seed from w/t Samsun tobacco and 8 T1 seed from events B8 and G9 are also planted out in 3 inch pots, grown on for 7 to 12 d and then, as described in the foregoing examples, the plantlets spray tested for resistance to various chemicals and assessed at 14 DAT. Chemicals are formulated in 0.2% X77 and sprayed at a spray volume of 200 l/ha.
(§2) Seed of wild-type tobacco plants, C2 tobacco plants and of the T1 progeny of a further Arabidopsis-HST expressing tobacco line, D2 were planted out in 3 inch pots, grown on, sprayed with compounds 1.1, 2.30 and 3.6 at the rates shown in table 5. Percent damage scores were assessed at 7 DAT. Aside from the presumptive non-transgenic segregants the D2 line containing the Arabidopis HST expression construct offered the highest level of tolerance to the two HST herbicides with the Psuedomonas HPPD, C2 line, offering only marginal tolerance under the conditions of this test.
(§3) Single copy events amongst the T1 plant lines are identified by their 3:1 segregation ratio (wrt kanamycin and or herbicide) and by quantitative RT-PCR. Seed from the thus selected T1 tobacco (var Samsun) lines are sown in 3 inch diameter pots containing 50% peat, 50% John Innes soil no 3. After growth to the 3 leaf stage, plants are sprayed, as described above, in order to test for herbicide tolerance relative to like-treated non-transgenic tobacco plants.
(§4) Control tobacco plants and transgenic T1 plants expressing either the Pseudomonas or the wheat HPPD gene are sprayed at 37, 111, 333 and 1000 g/ha rates of HST inhibitors and, for example, compound 2.3.
(§5) Plants are assessed and scored for % damage at 16 DAT.

[5] = system: tobacco plants expressing Pseudomonas fluorescens HPPD; assay: Glasshouse spray test, Pseudomonas HPPD transgenic tobacco; format: in vivo; conditions: C2 line (Pseudomonas HPPD, T2), individual plants
Text: Tobacco plants expressing the wild-type HPPD gene of Pseudomonas fluorescens strain 87-79 under operable control of the double enhanced 35S CMV promoter region, Nos3′ terminator and TMV translational enhancer were provided as detailed in Example 4 of WO0246387.
as §2
Transgenic lines of tobacco, soyabean and corn etc. can be engineered to express various heterologous HPPDs derived from, for example Avena (SEQ ID #26), Wheat (SEQ ID #27), Pseudomonas fluorescens (SEQ ID # 25) and Shewanella colwelliana (SEQ ID #28) as, for example, described in WO 02/46387.
as §3, §4, §5

[6] = system: Arabidopsis HST transgenic tobacco plants; assay: Glasshouse spray test, Arabidopsis HST transgenic tobacco; format: in vivo; conditions: D2 line (Arabidopsis HST, segregating T1), individual plants

`Cn1c(=O)c(-c2c(F)ccc(F)c2Cl)c(O)c2nccnc21` [Compound 2.4] was tested, and the “Chlamydomonas. HST % I at 10 ppm” value [1] was 5%, the “Chlamydomonas. HST % I at 100 ppm” value [1] was 45% and the “Estimated IC50 (ppm)” value [2] was 211* ppm.
With `Cn1c(=O)c(-c2c(F)ccc(Br)c2Cl)c(O)c2nccnc21` [Compound 2.5] the “Chlamydomonas. HST % I at 10 ppm” value [1] was 70%, the “Chlamydomonas. HST % I at 100 ppm” value [1] was 90% and the “Estimated IC50 (ppm)” value [2] was 48* ppm.
In the case of `Cc1cc(C)c(-c2c(O)c3nccnc3n(CC(F)F)c2=O)c(C)c1` [Compound 2.11], the inhibition at 25 ppm ([1]; 25 ppm, read-out: Chlamydomonas. HST % I at 25 ppm) is reported as 80%, the “Spinach chloroplast extract % I at 25 ppm” value [3] is reported as 30% and the “Estimated IC50 (ppm)” value [2] is reported as 31* ppm.
For `CC(C)C(=O)OC1=C(c2cc(Cl)ccc2C(F)(F)F)S(=O)(=O)N(CC(F)F)c2nccnc21` [Compound 3.6], the “% damage at 7 DAT” value ([4]; 150 gai/ha) was 80%, the “percent damage at 6 DAT” value ([4]; 300 g/ha, WT, reps) was 65% and the “% damage at 7 DAT” value ([4]; 300 gai/ha) was 80% (2×) and 75%. The “% damage at 7 DAT” value ([4]; 450 gai/ha) was 85%, the “% damage at 7 DAT” value ([5]; 150 gai/ha) was 60% and the “% damage at 7 DAT” value ([5]; 300 gai/ha) was 65% (3×) and 70%. For the same compound, the “% damage at 7 DAT” value ([5]; 450 gai/ha) was 65%, the “% damage at 7 DAT” value ([6]; 150 gai/ha) was 10% (2×) and 70% (2×) and 30% and 20% and 65% and 25% and the “% damage at 7 DAT” value ([6]; 300 gai/ha) was 65% and 35% and 7% and 85% (2×) and 80% and 75% and 40%. The “% damage at 7 DAT” value ([6]; 450 gai/ha) was 55% and 25% (2×) and 65% (2×) and 70% and 80% and 75%.
